Structures are written as SMILES. Entries after “also recorded” stand apart in the source; their conditions may differ.

The text below walks through data of US11229608B2 (priority 2019, dated 2022).

This series relates to ornamental vinca (vincire) plants. Put plainly: Phytotoxicity assessment on vinca plants after foliar application. Conditions: 72 hours; for Phytotoxicity rating: visual. The series is classed as in vivo. Further details: key to Phytotoxicity rating: −: non-phytotoxic; +: minimal phytotoxic; ++: moderate phytotoxic; +++: heavy phytotoxic. How it is done:
Ornamental vinca plants are susceptible to metal phytotoxicity such as Cu and used as industry standard. 3 plants were foliar sprayed with each treatments and controls at three different rates, 300 ppm, 600 ppm and 1,000 ppm. Test solutions were foliar applied using hand-operated pump mist sprayer till run off. Afterwards, plants were placed in plant growth chamber (Panasonic MLR-325H-PA) programmed to simulate summer conditions (maximum temperature set at 31° C.). Visual observations were conducted after 72 hours application to assess the overall plant health and phytotoxicity rating.
The assessment was done visually based on size and number of burns on plants after 72 hours of foliar application. Vinca (vincire) plant phytotoxicity rating on a scale of “−” non-phytotoxic, “+” minimal phytotoxic, “++” moderate phytotoxic, and (+++) heavy phytotoxic.

Regarding `O=[N+]([O-])[O-].O=[N+]([O-])[O-].[Zn+2]` [Zinc nitrate], the “phytotoxicity (in words)” value is “non-phytotoxic” (300 μg/ml), “moderately phytotoxic; also recorded: minimally phytotoxic” (600 μg/ml) and “moderately phytotoxic” (1,000 μg/ml (ppm)). Further, the Phytotoxicity rating entry (metal concentration 300 μg/ml) was “−”, the Phytotoxicity rating entry (metal concentration 600 μg/ml) is on record as “+” and the Phytotoxicity rating entry (metal concentration 1000 μg/ml) was “++”.

Turning to `O=[N+]([O-])[O-].O=[N+]([O-])[O-].[Cu+2]` [Copper nitrate], the “phytotoxicity (in words)” value (1,000 μg/ml (ppm)) is recorded as “severely phytotoxic”. Moreover, the Phytotoxicity rating entry (metal concentration 1000 μg/ml) is “+++”.
